Article PMC10463376, “Design, synthesis, in vitro anticancer, molecular docking and SAR studies of new series of pyrrolo[2,3-d]pyrimidine derivatives” (BMC Chemistry, 2023)
Converted amounts (≈) assume the structure as drawn. “Also recorded” adds a separate entry of the source.

Tests used:
Bcl2 = assay: ELISA Bcl2 in MCF7 cells; type: cell-based, human; settings: MCF7 cells treated with IC50; untreated control 14.37
Description: (§1) Elisa assay was used to determine the concentrations of Human caspases-3, -8, Bax, and Bcl2 in PACA2- and A549-treated cells. Also, the concentrations of caspase-8, Bax, and Bcl2 in MCF7-treated cells were detected. The procedures were followed up according to the instructions described in the following kits; Invitrogen human Caspase-3 Elisa Kit, Catalog KHO1091, DRG® human Caspase-8 ELISA Kit, Catalog (EIA-4863), Human Bax ELISA Kit (ab199080) and Human Bcl-2 ELISA Kit (ab119506) respectively. Shortly, the protocol described in the above kits was as followed; at the beginning, all the reagents, samples and standards were prepared. 100 μl of samples or standard were micro pipetted to each well of micro-well strip and kept at room temperature for 2 h. After washing the micro-well strips three times with washing buffer, the prepared antibody (anti-rabbit-IgG-HRP) at a concentration of 100 μl was added to each well at room temperature for 1 h. Then, the micro-well strips were washed again three times. Afterward, the prepared tetramethyl-benzidine (TMB) solution (100 μl) was added to the micro-well strips and kept for 10 min. At last, about 50 μl of stop solution was pipetted to each well to inactivate the enzyme completely. The absorbance of all samples was measured at a wavelength of 460 nm and compared to that of the standard. Curve fitting software was used to plot a standard curve and the concentrations for the unknown samples were measured from the standard curve.

caspase 8 = assay: ELISA caspase 8 in MCF7 cells; type: cell-based, human; settings: MCF7 cells treated with IC50; untreated control 3.99
Description: as §1

[1] = test system: PC3 prostate cancer cells; assay: MTT assay, PC3; settings: Homo sapiens, 72 h
How it was run: (§2)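 Cells seeded at 10 × 10^4 cells/well, 24 h at 37 ℃/5% CO2, then exposed to compound for 72 h (DMSO <0.2%); MTT ([…]) added for 4 h, formazan dissolved in 10% SDS overnight, absorbance read at 595 nm with 620 nm reference. IC50 as concentration killing 50% of cells; SI = IC50 in BJ1/IC50 in cancer line.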

DR5 = assay: RT-qPCR DR5 mRNA in MCF7; type: cell-based, human; settings: MCF7, vs negative control
Experimental: (§3) All of the extractions were conducted on ice with ice-cold reagents. Total RNA from the different cell lines was isolated using Trizol (Invitrogen; Life Technologies, USA) according to the method of Sthoeger et al.. The 260:280 ratios were measured to determine RNA quality after the isolation method was completed according to the manufacturer’s instructions. A high-capacity cDNA reverse transcription kit was used to produce complementary DNA (cDNA) (Applied Biosystems, USA). […] The relative gene expression method (i.e., ΔΔCT) was used to analyze the real-time PCR data, as explained in Applied Biosystem User Bulletin No. 2. Each sample and gene were normalized using the β-actin gene.

IL-8 = assay: RT-qPCR IL-8 mRNA in MCF7; type: cell-based, human; settings: MCF7, vs negative control
Experimental: as §3

CDK4 = assay: RT-qPCR CDK4 mRNA in MCF7; type: cell-based, human; settings: MCF7, vs negative control
Experimental: as §3

DR4 = assay: RT-qPCR DR4 mRNA in MCF7; type: cell-based, human; settings: MCF7, vs negative control
Experimental: as §3

MCF7 breast cancer cells = assay: MTT assay, MCF7; settings: Homo sapiens, MCF7, 72 h
How it was run: as §2

[2] = MTT assay, normal cell line BJ1; type: cell-based; settings: human, at 100 μg/ml, read-out: MTT cell proliferation mortality assay (%) BJ1
[3] = test system: PACA2 pancreatic cancer cells; assay: MTT assay, PACA2; settings: Homo sapiens, PaCa-2, 72 h
How it was run: as §2

BAX [4] = assay: ELISA BAX in MCF7 cells; type: cell-based, human; settings: MCF7 cells treated with IC50; untreated control 4.92
Description: as §1

P53 = assay: RT-qPCR P53 mRNA in MCF7; type: cell-based, human; settings: MCF7, vs negative control
Experimental: as §3

Bcl-2 = assay: RT-qPCR Bcl-2 mRNA in MCF7; type: cell-based, human; settings: MCF7, vs negative control
Experimental: as §3

HePG2 liver cancer cells = assay: MTT assay, HePG2; settings: Homo sapiens, HepG2, 72 h
How it was run: as §2

A549 lung cancer cells = assay: MTT assay, A549; settings: Homo sapiens, A549, 72 h, read-out: MTT cell proliferation mortality assay (%) A549, at 100 μg/ml, 72 h
How it was run: as §2

BAX [5] = assay: RT-qPCR BAX mRNA in MCF7; type: cell-based, human; settings: MCF7, vs negative control
Experimental: as §3

In the case of `COc1ccc(-c2c(Cl)n(-c3ccc(Cl)cc3Cl)c3ncnc(N4CCOCC4)c23)cc1OC` [Compound 18b, 4-(6-chloro-7-(2,4-dichlorophenyl)-5-(3,4-dimethoxyphenyl)-7H-pyrrolo[2,3-d]pyrimidin-4-yl)morpholine], the “Bcl2 level (ELISA)” value (Bcl2) is reported as 9.24 pg/mL, the “caspase 8 level (ELISA)” value (caspase 8) is reported as 10.29 pg/mL and the IC50 ([1]; read-out: IC50 PC3) is reported as 19.2 ± 0.9 µg/mL (≈ 36.9 µM). The cytotoxicity at 100 µg/mL ([1]; read-out: MTT cell proliferation mortality assay (%) PC3, at 100 μg/ml, 72 h) was 100%, the “DR5 mRNA level” value (DR5) was “increased; also recorded: up-regulated” and the “IL-8 mRNA level” value (IL-8) was “lowered; also recorded: down-regulated”. The “CDK4 mRNA level” value (CDK4) was “lowered; also recorded: down-regulated”, the “DR4 mRNA level” value (DR4) was “increased; also recorded: up-regulated” and the IC50 (MCF7 breast cancer cells; read-out: IC50 MCF7) was 3.4 ± 0.3 µg/mL (≈ 6.54 µM). For the same compound, the cytotoxicity at 100 µg/mL (MCF7 breast cancer cells; read-out: MTT cell proliferation mortality assay (%) MCF7) was 100%, the cytotoxicity at 72 h, 100 μg/ml [2] was 20.6 ± 2.1% and the IC50 ([3]; read-out: IC50 PACA2) was 15 ± 0.9 µg/mL (≈ 28.9 µM). The cytotoxicity at 100 µg/mL ([3]; read-out: MTT cell proliferation mortality assay (%) PACA2) was 100%, the “BAX level (ELISA)” value (BAX [4]) was 7.25 pg/mL and the “P53 mRNA level” value (P53) was “significantly increased; also recorded: up-regulated”. The “Bcl-2 mRNA level” value (Bcl-2) was “down-regulated”, the IC50 (HePG2 liver cancer cells; read-out: IC50 HePG2) was 28.1 ± 0.4 µg/mL (≈ 54.1 µM) and the cytotoxicity at 100 µg/mL (HePG2 liver cancer cells; read-out: MTT cell proliferation mortality assay (%) HePG2) was 100%. The cytotoxicity at 100 µg/mL (A549 lung cancer cells) was 11.2 ± 0.6% and the “BAX mRNA level” value (BAX [5]) was “up-regulated”.
